# In EP0734445B1, “CHIMERIC GENES AND METHODS FOR INCREASING THE LYSINE CONTENT OF THE SEEDS OF CORN, SOYBEAN AND RAPESEED PLANTS” (priority 1993, dated 1995):
# Legend:
# [1] = target: T1, Corynebacterium DHDPS (Corynebacterium glutamicum, UniProt P19808, S2A); assay: DHDPS enzyme activity assay; assay type: biochemical; conditions: lysine at 70 mM in the enzyme reaction mix
# T1 construct: An 870 bp Nco I-EcoR I fragment from pFS766 containing the entire cordapA coding region; made in house; host or cells: E. coli BL21(DE3)/pFS766, supernatant of uninduced extract
# T1 sequence (P19808 whole entry S2A, the tested form may be a part): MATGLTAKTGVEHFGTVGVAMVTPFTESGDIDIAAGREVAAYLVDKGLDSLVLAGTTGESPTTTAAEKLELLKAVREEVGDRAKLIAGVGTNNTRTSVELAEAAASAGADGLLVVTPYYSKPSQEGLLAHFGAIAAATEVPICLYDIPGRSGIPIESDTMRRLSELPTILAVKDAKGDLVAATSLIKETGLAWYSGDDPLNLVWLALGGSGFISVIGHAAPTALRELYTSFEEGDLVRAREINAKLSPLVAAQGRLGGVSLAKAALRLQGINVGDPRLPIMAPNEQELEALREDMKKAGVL
# Procedure: (§1) DHDPS enzyme activity was assayed as follows: Assay mix (for 10 X 1.0 mL assay tubes or 90 X 0.25 mL for microtiter dish); made fresh, just before use:
# (§2) Color allowed to develop for 30-60 min. Precipitate spun down in eppendorf centrifuge. OD540 vs 0 min read as blank. For MicroAssay, aliquot 0.2 mL into microtiter well and read at OD530.
# (§3) The specific activity of E. coli DHDPS in the supernatant fraction of induced extracts was about 50 OD540 units per minute per milligram protein in a 1.0 mL assay. E. coli DHDPS was sensitive to the presence of L-lysine in the assay. Fifty percent inhibition was found at a concentration of about 0.5 mM. For Corynebacterium DHDPS, the activity was measured in the supernatant fraction of uninduced extracts, rather than induced extracts. Enzyme activity was about 4 OD530 units per minute per milligram protein in a 0.25 mL assay.
# [2] = target: T2, E. coli DHDPS (Escherichia coli, UniProt P0A6L2, F2V); assay: DHDPS enzyme activity assay; assay type: biochemical
# T2 construct: An 880 bp Nco I-Kpn I fragment from pBT443 containing the entire ecodapA coding region; made in house; host or cells: E. coli BL21(DE3)/pBT442, supernatant of IPTG-induced extract
# T2 sequence (P0A6L2 whole entry F2V, the tested form may be a part): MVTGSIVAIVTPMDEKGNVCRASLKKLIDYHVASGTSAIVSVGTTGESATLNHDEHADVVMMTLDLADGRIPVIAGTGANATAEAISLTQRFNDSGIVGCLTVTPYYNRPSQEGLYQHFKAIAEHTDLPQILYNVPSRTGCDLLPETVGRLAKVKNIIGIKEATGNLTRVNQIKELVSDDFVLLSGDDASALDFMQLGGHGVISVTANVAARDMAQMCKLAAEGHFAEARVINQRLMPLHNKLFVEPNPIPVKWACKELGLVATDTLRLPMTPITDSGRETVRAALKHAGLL
# Procedure: as §1, §2, §3
# [3] = target: T3, wild type AKIII (Escherichia coli, UniProt P08660); assay: Inhibition of AKIII by lysine; assay type: biochemical, E. coli
# T3 construct: made in house; host or cells: E. coli (pBT436 in AK-deficient strain Gif106M1)
# T3 sequence (P08660 2-449): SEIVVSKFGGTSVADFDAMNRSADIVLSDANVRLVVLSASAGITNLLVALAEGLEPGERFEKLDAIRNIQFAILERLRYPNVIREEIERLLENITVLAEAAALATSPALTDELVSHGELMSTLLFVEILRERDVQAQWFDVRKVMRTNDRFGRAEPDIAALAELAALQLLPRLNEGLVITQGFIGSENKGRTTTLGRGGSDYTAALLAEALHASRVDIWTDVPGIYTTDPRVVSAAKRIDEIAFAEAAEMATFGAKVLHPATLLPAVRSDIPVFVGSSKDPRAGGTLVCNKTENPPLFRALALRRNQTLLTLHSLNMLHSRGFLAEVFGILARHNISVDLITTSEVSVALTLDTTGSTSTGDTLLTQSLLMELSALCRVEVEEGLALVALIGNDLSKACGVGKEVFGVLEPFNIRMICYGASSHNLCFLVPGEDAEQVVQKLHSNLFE
# Procedure: (§4) Single colonies of Gif106M1 transformed with pBT436 were picked and resuspended in 200 µL of a mixture of 100 µL 1% lysine plus 100 µL of M9 media. The entire cell suspension containing 10^7-10^8 cells was spread on a petri dish containing M9 media supplemented with the arginine, isoleucine, and ampicillin. Sixteen petri dishes were thus prepared. From 1 to 20 colonies appeared on 11 of the 16 petri dishes. One or two (if available) colonies were picked and retested for lysine resistance and from this nine lysine-resistant clones were obtained. Plasmid DNA was prepared from eight of these and re-transformed into Gif106M1 to determine whether the lysine resistance determinant was plasmid-borne. Six of the eight plasmid DNAs yielded lysine-resistant colonies. Three of these six carried lysC genes encoding AKIII that was uninhibited by 15mM lysine, whereas wild type AKIII is 50% inhibited by 0.3-0.4 mM lysine and >90% inhibited by 1 mM lysine (see Example 2 for details).
# [4] = target: T4, AKIII encoded by mutant lysC genes (Escherichia coli, UniProt P08660, T352I); assay: Inhibition of AKIII by lysine (mutant lysC genes); assay type: biochemical, E. coli; conditions: 15mM lysine; three of six mutant lysC plasmids
# T4 construct: made in house; host or cells: E. coli (mutant derivatives of pBT436 selected in Gif106M1; the extract used is not described)
# T4 sequence (P08660 whole entry T352I): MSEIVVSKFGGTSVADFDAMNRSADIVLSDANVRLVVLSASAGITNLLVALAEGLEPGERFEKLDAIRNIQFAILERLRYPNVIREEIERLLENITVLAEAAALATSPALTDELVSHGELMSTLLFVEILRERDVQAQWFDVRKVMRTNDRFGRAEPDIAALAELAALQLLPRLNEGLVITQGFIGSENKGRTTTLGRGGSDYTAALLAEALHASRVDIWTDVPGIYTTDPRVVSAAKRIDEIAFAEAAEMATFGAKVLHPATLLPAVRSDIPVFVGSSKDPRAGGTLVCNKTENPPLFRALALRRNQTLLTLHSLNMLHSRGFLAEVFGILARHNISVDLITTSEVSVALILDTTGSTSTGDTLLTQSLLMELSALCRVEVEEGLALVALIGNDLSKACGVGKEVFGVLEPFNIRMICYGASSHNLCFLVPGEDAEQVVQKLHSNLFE
# Procedure: as §4
# The sequences of the three mutant lysC genes that encoded lysine-insensitive AK each differed from the wild type sequence by a single nucleotide, resulting in a single amino acid substitution in the protein. […] Thus, either of these single amino acid substitutions is sufficient to render the AKIII enzyme insensitive to lysine inhibition.
# [5] = tested on: Gif106M1 transformed with pBT436; assay: Growth inhibition in M9 media; assay type: cell-based, E. coli; conditions: M9 media with arginine, isoleucine, ampicillin; reversed by threonine plus methionine
# Procedure: Addition of lysine (or diaminopimelate which is readily converted to lysine in vivo) at a concentration of approximately 0.2 mM to the growth medium inhibits the growth of Gif106M1 transformed with pBT436. M9 media [see Sambrook et al. (1989) Molecular Cloning: a Laboratory Manual, Cold Spring Harbor Laboratory Press] supplemented with the arginine and isoleucine, required for Gif106M1 growth, and ampicillin, to maintain selection for the pBT436 plasmid, was used. This inhibition is reversed by addition of threonine plus methionine to the growth media. […] This property of pBT436-transformed Gif106M1 was used to select for mutations in lysC that encoded lysine-insensitive AKIII.
# [6] = tested on: DE126; assay: Growth inhibition in synthetic medium; assay type: cell-based, E. coli
# Text: To select clones that carried the LKR gene a specially designed E. coli host, DE126 was constructed. Construction of DE126 occurred in several stages. • (1) A generalized transducing stock of coliphage Plvir was produced by infection of a culture of TST1 [F^-, araD139, delta (argF-lac) 205, flb5301, ptsF25, relA1, rpsL150, malE52::Tn10, deoC1, λ^-] (E. coli Genetic Stock Center #6137) using a standard method (for Methods see J. Miller, Experiments in Molecular Genetics). • (2) This phage stock was used as a donor in a transductional cross (for Method see J. Miller, Experiments in Molecular Genetics) with strain GIF106M1 [F^-, arg-, ilvA296, lysC1001, thrA1101, metL1000, λ^-, rpsL9, malT1, xyl-7, mtl-2, thi1(?), supE44(?)] (E. coli Genetic Stock Center #5074) as the recipient. Recombinants were selected on rich medium [L supplemented with DAP] containing the antibiotic tetracycline. […] The genes malE and lysC are separated by less than 0.5 minutes, well within cotransduction distance. • (3) 200 tetracycline-resistant transductants were thoroughly phenotyped; appropriate fermentation and nutritional traits were scored. […] The phenotype of one clone was determined to be Ilv^+, Arg^-, TetR, Lysine-sensitive, male specific phage (MS2)-sensitive, consistent with the simple transfer of F'16 from AB1528 to DE125. […]
Structure (SMILES),inhibition by L-lysine [1],inhibition by L-lysine ([1]; listed as lysine),IC50 [2],"fold less sensitive to inhibition by lysine than a typical plant enzyme, e.g., wheat DHDPS [2]",inhibited ([3]; 1 mM lysine),"IC50 ([3]; read-out: 50% inhibited, lysine concentration)",inhibition by lysine [4],concentration in the growth medium that inhibits growth [5],concentration of L-lysine that inhibits growth [6]
NCCCC[C@H](N)C(=O)O [L-lysine],not inhibited at all,unaffected,~500 µM,at least 20 fold,> 90%,300 to 400 µM,uninhibited,approximately 0.2 mM,20 µg/mL
NC(CCCC(N)C(=O)O)C(=O)O (stereo not shown) [diaminopimelate],,,,,,,,approximately 0.2 mM,
